Drawing on publication PMC9798707, “Targeting SOST using a small-molecule compound retards breast cancer bone metastasis” (Molecular Cancer, 2022), this text covers Kd, kon and koff for one compound.

In the assay the target is T1, SOST (Homo sapiens, UniProt Q9BQB4).
T1 construct: commercial recombinant SOST (SinoBio 10593-H07H), biotinylated and immobilized on Octet SSA biosensors
T1 sequence (Q9BQB4 24-213): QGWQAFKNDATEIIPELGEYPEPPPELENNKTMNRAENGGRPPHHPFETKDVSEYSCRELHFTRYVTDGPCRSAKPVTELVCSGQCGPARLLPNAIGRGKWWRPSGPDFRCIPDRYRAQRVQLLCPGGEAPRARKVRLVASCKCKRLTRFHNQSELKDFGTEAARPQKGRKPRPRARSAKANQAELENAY
The assay is described as follows: biochemical. Also on record: biolayer interferometry (Octet K2), compound binding to immobilized biotinylated SOST, multi-concentration. The note with it: multi-concentration BLI, 30 C. Here is the method: The affinity of S6 binding to SOST was measured, as described previously using an Octet K2 instrument (ForteBio). All assays were run at 30 °C with continuous shaking of 1000 RPM using the assay buffer of 0.1% BSA, 0.01% Tween-20 and 1% DMSO in PBS. SOST (10,593-H07H, SinoBio, Beijing, China) at 0.15 mg/ml was dissolved in sterile water, biotinylated and immobilized onto the Octet SSA biosensors. S6 (C29H24N6O2S, molecular weight 520.62, Chemdiv, USA) was dissolved in PBS and adjusted to different concentrations for BLI. After each round of association and disassociation, the SOST-contained sensors were washed with the assay buffer for 10 min to remove nonspecifically bound molecules. Raw kinetic data were obtained. The kon and koff values were analyzed using the software provided and the Kd values were calculated, based on double reference subtraction. We next sought to model the interaction of SOST with STAT3 and identify its inhibitors from a small-molecule chemical library (Fig. 4A). […] Subsequently, we performed virtual screening for compounds that might block the binding of SOST to STAT3 (Fig. 4C). We screened approximately 120,000 compounds and obtained 38 candidates. We tested single-concentration of them in BLI test. Data from 35 of these compounds are shown in Figure S4 and SI Table 1, except for compounds 2, 10, and 25, which could not be detected due to poor solubility. […] compounds (6, 11, 12, 17, 22, 24, 34, 38) were screened by multi-concentration gradients to obtain R2, Kd, kdis, and response parameters (Fig. 4D-E, Fig. S5 and SI Table 2). Four compounds, 6, 11, 28, and 34, were selected for drug sensitivity testing (Fig. 4F and Fig. S5). […] S6 boudn to SOST with a high affinity (Fig. 4G).

What is called Kd is the free concentration of one partner at which half of the binding sites on the other are occupied at equilibrium, for simple one-to-one binding. Low readings indicate a tighter complex, high ones a looser complex. One may read the kon as a measure of how fast the partners come together. Low readings indicate slow association, high ones fast association. For the compound `Cc1ccc(-c2nnc(Nc3ccccc3)c3ccccc23)cc1S(=O)(=O)NCc1nc2ccccc2[nH]1` [compound 6, S6], binding was characterised by a dissociation constant (Kd) of 399 µM and the on-rate (kon) is 765 M⁻¹ s⁻¹. Moreover, the koff (read-out: kdis) amounted to 0.305 s⁻¹.
